Reference: patent publication US12339274B2, “Blood coagulometer and method” (priority 2016, dated 2025)
Read-outs that look alike come from different tables or passages of the source.

Tested on: human whole blood
Type: cell-based
Description: One or more samples of human whole blood were collected by a licensed medical doctor from a healthy volunteer known to refrain from the taking of anticoagulant medications such as, for example, aspirin. Written informed consent of the donors was collected under an approved protocol from the Internal Review Board at the UT Health Science Center. Human whole blood was collected, by antecubital venipuncture, into vials 12 containing the anticoagulant sodium citrate (3.8%, applied at a 9:1 blood to citrate ratio).
Embodiments of the apparatus 10 of the present invention may also be used to characterize clot contraction. […] The test volume was 27 μL; however, to ensure filling of the test chamber and complete immersion within the blood sample 50 of the wetted portion 24/plate 15 of the probe 20 disposed within the vial 15, a volume of 250 μL of blood was injected into a vial 15 comprising glass. Data recording began once the wetted portion 24/plate 15 was lowered into position such that it was immersed within the blood sample 50 and was 1 mm away from the lower member 50, both of which comprised acrylic. Deflection of the wire portion 21 of the probe 20 typically began after 360 to 480 seconds, and data collection was concluded after 3,600 seconds (1 hour).

C=C1[C@@H](C)[C@H]2[C@H](Cc3ccccc3)NC(=O)[C@]23[C@H](OC(C)=O)/C=C/[C@@](C)(O)C(=O)[C@@H](C)C/C=C/[C@H]3[C@@H]1O [cytochalasin D]
contraction force (increasing concentrations in human whole blood): dose-dependent decrease

c1nnn[nH]1 [tetrazole]
contraction force (1 mMol in human whole blood, FIG. 41): enhanced contraction force | contraction force (60 mMol in human whole blood, FIG. 41): reduced contraction force
